Data set [1] can be described thus: DAS solubility at 25 °C in different environments. The class given is physicochemical. Particulars: pH 6, Water (ultrapure, pH about 6.0). As to the method: (§1) The phase solubility study was conducted in accordance with Higuchi and Connors. In detail, DAS was added in excess to an aqueous solution containing HP-β-CD in the appropriate concentration (0–10% w/v) until saturation and the suspensions thus obtained were placed in 4 mL vials with screw cap to avoid changes that are caused by evaporation. The obtained mixtures were vortexed for about 5 min and then placed in a thermostat bath at 25 °C for three days.
(§2) Subsequently, an aliquot of the aqueous phase of each mixture was transferred into a 5 mL glass syringe and filtered through a 0.22 μm cellulose acetate membrane filter (Millipore®, Milan, Italy).
(§3) The obtained filtrate was suitably diluted and subjected to subsequent HPLC analysis for the quantification of the drug. All of the determinations were conducted in triplicate.

Data set [2] in a line: Phase solubility study of DAS with HP-β-CD in water (Higuchi-Connors). The settings on record: 25 °C. The class given is physicochemical. As to the method:
as §1, §2, §3
The obtained data were used to determine the apparent stability 1:1 constant (K1:1) of the DAS/HP-β-CD inclusion complex, using the slope of the phase solubility diagrams straight line, as reported by Higuchi and Connors in the following equation:(1) K1:1=slope/S0(1−slope) where S0 represents DAS solubility in absence of cyclodextrin determined in the same way.

Data set [3] is described as follows: Dissolution studies at 37 °C (BIODIS USP III apparatus). Format: physicochemical. The settings on record: HCl 0.05 M pH 1.2, 37 °C, after approximately 420 min. As to the method:
Dissolution experiments were performed at 37 °C using a BIODIS USP III apparatus (Varian Inc., Cary North Carolina, CA, USA), equipped with a rod stirrer maintaining a rotational speed of 100 rpm during the test. Samples of DAS or DAS/HP-β-CD solid complex, equivalent to about 2 mg of DAS, were suspended in the dissolution medium (80 mL of 0.05 M phosphate buffer at pH 7.4 or HCl 0.05 M pH = 1.2). The volume of 80 mL was chosen taking into account the HPLC quantification limit for the determination of DAS.
At predetermined time intervals, 600 µL of suspension were collected and, in order to keep constant the initial volume, 600 μL of the same dissolution medium previously thermostated at the same temperature were added. Samples were subsequently filtered using a 0.22 µm membrane filter (Millipore® cellulose acetate), and the filtrates thus obtained were subjected to HPLC analysis after appropriate dilution. For quantitative analysis the calibration curve previously constructed was used and the dissolution profiles shown correspond to the average of three determinations.

For the next data set, the system named is C2C12 cells. The data set can be described thus: Cytotoxicity / cell viability (CCK-8). The class given is cell-based, murine. Particulars: C2C12 myoblasts, 0.1–100 μM, 5 h treatment. Here is the method:
C2C12 myocytes were cultured in DMEM that was supplemented with 10% fetal bovine serum, 1% penicillin, 1% streptomycin and 1% glutamine and were maintained at 37 °C in 5% CO2/95% air. Cell viability was evaluated by measuring the succinic dehydrogenases activity in the cell suspension using the cell counting Kit-8 (CCK-8) (Sigma Aldrich), which utilizes a highly water-soluble tetrazolium salt and whose detection sensitivity is higher than other tetrazolium salts.
Cells were seeded in 96-well cultures at a density of approximately 4.5 × 10^3 cells per well and then cultured for 16 h. Afterwards, the cells were treated for 5 h with free DAS (in DMSO <0.15% in order to ensure cellular vitality) or complexed with HP-β-CD, but at the same concentration calculated on the basis of the incorporation degree, both being dissolved in DMEM. Following exposure, 10 μL of CCK-8 were added into each well and then the plate was incubated for additional two hours. The absorbance at 450 nm was measured using a spectrophotometer (microplate reader Victor V31420–40; PerkinElmer, Wellesley, Massachusetts). […] The results are expressed as the percentage of the control and presented as the mean ± SD. Each data is from 24–48 replicates (wells) and 6–9 different culture dishes.

Data set [4] can be described thus: Pharmacokinetic analysis of DAS in quadriceps and liver after oral treatment. The class given is in vivo, C57Bl/6J mice. The settings on record: DAS/HP-β-CD inclusion complex 15 mg/kg in drinking water for 1 week, WT mice.
Method: A total of 10 sedentary WT male mice C57Bl/6J (Charles River, Italy for Jackson Laboratories), homogeneous for age and body weight (BW) were divided into 2 groups as follows: 4 WT mice vehicle-treated (HP-β-CD 10%) and 6 WT mice treated with DAS/HP-β-CD inclusion complex at the dose of 15 mg/Kg. Drug and vehicle were administered in drinking water for 1 week.
In detail, analysis was performed in quadriceps (Quad) and livers of treated animals. Tissues were individually weighed into a "FastPrep" tube and PBS was added (3:1 ratio). Each tube was placed in the fast prep homogenizer on a predetermined 1min cycle to ensure complete homogenization. 40 µL of each homogenate was aliquoted to a fresh tube and 50 µL of MeOH plus 150 µL of Methanol-containing Internal standard (25 ng/mL Imipramine HCl) was added. Each sample was mixed on a Bioshake for 1 min and then transferred to the freezer at −20 °C for at least two hours prior centrifugation at 2500 × g for 20 min. The supernatants were then transferred to a 96-well plate for sampling by the LC-MS/MS. A Thermo TSQ Quantiva with Thermo Vanquish UHPLC system was used (Thermo Fisher Scientific Inc, Milan, Italy). […] Quantitative analysis was conducted by MRM at 232.06 to 401.11 m/z for DAS inclusion complex and at 86.10 to 193.04 m/z for the internal standard Imipramine. […]
On the set-up of data set [5]: method as in PMID 26604135. Particulars: cited from earlier work.
The test system of a further data set is Src-TK. Also noted: method as in PMID 25658745. The settings on record: cited from earlier work.
The subject of another data set is cancer cell growth. The settings on record: no reference given; cited from earlier work.
For data set [6] the following is noted: known values, no reference given; cited from earlier work.

Structures are written as SMILES. “And” between values parts separate entries of the source, which are not always exact repeats. Equal values may be shown once.

What is called pKa is the negative logarithm of the acid dissociation constant.

Regarding `Cc1nc(Nc2ncc(C(=O)Nc3c(C)cccc3Cl)s2)cc(N2CCN(CCO)CC2)n1` [DAS, N-(2-chloro-6-methylphenyl)-2-[[6-[4-(2-hydroxyethyl)piperazin-1-yl]-2-methylpyrimidin-4-yl]amino]-1,3-thiazole-5-carboxamide], the solubility at 3 days was 1.33 µM in data set [1] (read-out: DAS Solubility); 0.000649 mg/mL in data set [1] (read-out: DAS Solubility (mg/mL)); 29 µM and 14 µg/mL in data set [2] (aqueous HP-β-CD solution, aqueous with cosolvent or surfactant or cyclodextrin, thermodynamic from solid, 6% w/v of HP-β-CD, read-out: DAS aqueous solubility in the presence of HP-β-CD). The “1:1 apparent formation (complexation) constant K1:1” value in [2] (DAS with HP-β-CD, from linear portion (0–6% HP-β-CD) of the phase solubility diagram) was 922.13 M⁻¹. In addition, the “quantity of drug dissolved” value in data set [3] is “approximately 81%”. Also, in the data set with C2C12 cells, the “cytotoxic effect on cell viability” value is “cytotoxic only at high concentrations”. In addition, in data set [4], the “DAS levels in quadriceps and livers” value was “Appreciable drugs’ levels were found in quadriceps and livers”. Moreover, the pKa in data set [5] is on record as 10.28. In the data set with Src-TK, the “inhibition of Src-TK, concentration range” value is “nanomolar range”. In the data set with cancer cell growth, the “IC50 values known to inhibit cancer cell growth” value was “nM range”. In addition, the therapeutic plasma levels entry in data set [6] is reported as “low µM values”.

These data come from article PMC6386909, “Dasatinib/HP-β-CD Inclusion Complex Based Aqueous Formulation as a Promising Tool for the Treatment of Paediatric Neuromuscular Disorders” (International Journal of Molecular Sciences, 2019).
